Experimental data: article PMC12700550, “DLL4^+ neutrophils promote Notch1-mediated endothelial PANoptosis to exacerbate acute lung injury in sepsis” (The Journal of Clinical Investigation, 2025)
“And” between values parts separate entries of the source, which are not always exact repeats. Equal values may be shown once.

Legend:
[1] = system: p-MLKL; assay: p-MLKL/MLKL in lungs of CLP mice, Western blot; format: in vivo, mouse; conditions: 10 mg/kg NDI, 20 h; for lung p-MLKL/MLKL (Figure 5F): individual mice, 10 mg/kg
Description: Sepsis was induced in mice by cecal ligation and puncture (CLP) as described previously ([45], [46]). Mice were anesthetized with isoflurane to a surgical plane and placed in a supine position. CLP was performed through a midline laparotomy. The abdomen was shaved and disinfected. Through a 2 cm midline incision, the cecum was exposed and then ligated with a 4-0 silk suture 1 cm proximal from the distal cecal extremity. For 20-hour CLP experiments, the cecum was punctured twice with a 22-gauge needle. A small amount of cecal content was extruded through both holes, and the ligated cecum was returned to the peritoneal cavity. The wound was closed in layers. For 10-day sepsis survival studies, the cecum was punctured once with a 22-gauge needle. A small amount of cecal content was extruded. Mice were allocated to the vehicle and adoptive transfer of DLL4^+ neutrophils or DLL4^– neutrophils groups. Adoptive transfer mice received a retro-orbital injection of 1 × 10^6 cells per mouse DLL4^+ neutrophils or DLL4^– neutrophils in […] phosphate-buffered saline (PBS) immediately after abdominal closure in both the 20-hour experiments and the survival study. Vehicle groups received an equivalent volume of PBS, while treatment groups received NDI 10 mg/kg in […] PBS via retro-orbital injection after CLP. This dose was chosen primarily on the basis of our laboratory’s prior experience, we have consistently used this dose in mouse CLP models with reproducible efficacy and without observable toxicity ([39], [44]). Sham-operated animals underwent a laparotomy without CLP. After closure, the mice received a subcutaneous injection of 0.5 mL of normal saline to overcome surgery-induced dehydration. […]
PVECs and lung tissue were collected in previous steps. Whole-cell proteins were extracted, and the protein concentration was measured using an ABC protein assay kit (catalog 5000002, Bio-Rad). […] Bands were detected using an Odyssey FC Dual-Mode Imaging system 2800 (LI-COR).

[2] = biological target: T1, rmNotch1 (Mus musculus, UniProt Q01705); assay: BIAcore assay (surface plasmon resonance), rmDLL4 to immobilized rmNotch1; format: binding, murine; conditions: 1 μg/mL NDI
T1 construct: purchased R&D Systems 5267-TK (rmNotch1); 1389-D4-050/CF (rmDLL4)
Description: To determine rmDLL4’s direct interaction with rmNotch1, surface plasmon resonance (OpenSPR, Nicoya) was performed. High-sensitivity nitrilotriacetic acid (HS-NTA) sensors were used. Binding reactions were performed in running buffer (PBS, 0.005% P20, pH 7.4). The HS-NTA sensor was first cleaned by injection with 10 mM HCl (150 μL) followed by injection of 150 μL of 350 mM EDTA. […] For the effect of NDI efficacy on rmDLL4 binding to rmNotch1, the same HS-NTA sensor was used. rmDLL4 at all the concentrations used for binding with rmNotch1 was preincubated with 1 μg/mL NDI for 30 minutes at room temperature, and then the complexes were injected to channels 1 and 2. Binding reactions were carried out with the same running buffer at a flow rate of 40 μL/min at 20°C. Channel 1 was used as a control to evaluate nonspecific binding. The real-time interaction data were analyzed by Trace Drawer (Nicoya). The signals from channel 1 were subtracted from channel 2 coated with the ligand for all samples. Data were globally fitted for 1:1 binding (one-to-one model).

[3] = system: DLL4 expression on human neutrophils; assay: Frequency of DLL4^+ neutrophils (CD66^+DLL4^+), human peripheral blood neutrophils; format: cell-based; conditions: 12 h
Text: Blood samples were obtained from the deidentified healthy human subjects. Written informed consent was obtained from all participants, and human subject protocols were approved by the Institutional Review Board of the North Shore University Hospital. Five milliliters of blood was collected by venipuncture and placed in EDTA blood collection tubes. We isolated the neutrophils from fresh blood samples by immunomagnetic cell separation using an EasySep Direct Human Neutrophil Isolation Kit (catalog 19666, Stem Cell Technologies). A total of 20 × 10^6 neutrophils were obtained from 5 mL of blood. Neutrophils (1 × 10^6 cells/mL) were stimulated with 1 μg/mL eCIRP for 12 hours. The cells were then stained with anti-CD66b (clone G10F5, catalog 984102, BioLegend) and DLL4 antibodies (clone MHD4-46, catalog 346506, BioLegend), and the frequencies (percentage) of DLL4^+ neutrophils were detected by flow cytometry.

T1 sequence (Q9JI71 28-525 partner limits assumed): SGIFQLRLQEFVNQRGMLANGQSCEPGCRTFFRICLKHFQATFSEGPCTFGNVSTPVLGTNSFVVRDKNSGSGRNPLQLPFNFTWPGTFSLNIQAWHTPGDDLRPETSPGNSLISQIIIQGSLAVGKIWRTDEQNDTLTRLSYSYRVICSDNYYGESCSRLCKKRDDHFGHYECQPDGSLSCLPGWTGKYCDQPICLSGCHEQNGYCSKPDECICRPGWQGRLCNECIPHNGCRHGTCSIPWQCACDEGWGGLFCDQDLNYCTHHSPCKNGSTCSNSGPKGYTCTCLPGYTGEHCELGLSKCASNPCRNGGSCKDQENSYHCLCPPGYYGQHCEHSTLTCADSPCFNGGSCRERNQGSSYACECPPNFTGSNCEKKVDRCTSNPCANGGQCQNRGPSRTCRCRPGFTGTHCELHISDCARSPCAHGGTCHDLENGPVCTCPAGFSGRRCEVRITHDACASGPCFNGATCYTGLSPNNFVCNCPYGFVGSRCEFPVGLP
T1 sequence (Q01705 with tags, fused parts or gaps limits assumed): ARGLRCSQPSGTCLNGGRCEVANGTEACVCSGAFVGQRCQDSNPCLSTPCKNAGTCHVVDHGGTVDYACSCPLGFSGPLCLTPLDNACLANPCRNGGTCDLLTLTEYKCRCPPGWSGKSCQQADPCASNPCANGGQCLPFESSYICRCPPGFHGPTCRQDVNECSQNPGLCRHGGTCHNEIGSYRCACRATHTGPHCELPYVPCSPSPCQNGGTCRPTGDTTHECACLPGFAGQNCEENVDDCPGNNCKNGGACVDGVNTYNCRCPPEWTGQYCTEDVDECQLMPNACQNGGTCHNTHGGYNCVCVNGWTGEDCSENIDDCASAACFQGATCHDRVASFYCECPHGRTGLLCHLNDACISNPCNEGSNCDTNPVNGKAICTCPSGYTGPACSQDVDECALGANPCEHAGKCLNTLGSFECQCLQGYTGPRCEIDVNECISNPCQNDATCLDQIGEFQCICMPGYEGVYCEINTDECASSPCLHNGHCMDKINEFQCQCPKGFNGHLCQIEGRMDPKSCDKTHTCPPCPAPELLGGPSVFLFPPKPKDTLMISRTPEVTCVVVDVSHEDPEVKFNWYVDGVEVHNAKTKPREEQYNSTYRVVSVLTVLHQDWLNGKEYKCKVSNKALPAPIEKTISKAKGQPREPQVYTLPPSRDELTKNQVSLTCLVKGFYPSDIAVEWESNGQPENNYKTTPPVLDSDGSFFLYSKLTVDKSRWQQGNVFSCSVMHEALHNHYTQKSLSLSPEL

| Molecule | lung p-MLKL/MLKL (Figure 5F) ([1]; DLL4^+ neutrophils + CLP) | effect on lung p-MLKL ([1]; DLL4^+ neutrophils/sepsis) | lung p-MLKL/MLKL (Figure 5F) ([1]; DLL4^– neutrophils + CLP) | effect on Notch1-DLL4 interaction [2] | frequency of DLL4^+ neutrophils (Figure 1K) ([3]; human neutrophils 1 × 10^6/mL, eCIRP 1 μg/mL, individual replicates) | effect on frequency of DLL4^+ neutrophils ([3]; human peripheral blood neutrophils, 1 μg/mL) |
| --- | --- | --- | --- | --- | --- | --- |
| ECAGSPCHNGGTCEDGI [NDI] | 1.846 and 1.579 and 1.945 and 1.685 and 1.856 and 1.651 and 0.9594 | attenuated the expression/activation | 1.556 and 0.2214 and 0.5541 and 0.7582 and 0.5214 and 0.9855 | significantly disrupted Notch1-DLL4 interaction |  |  |
| eCIRP: extracellular cold-inducible RNA-binding protein; recombinant murine, produced in our laboratory (protein, UniProt P60824 1-172, looked up) Cold-inducible RNA-binding …: MASDEGKLFVGGLSFDTNEQALEQVFSKYGQISEVVVVKDRETQRSRGFGFVTFENIDDAKDAMMAMNGKSVDGRQIRVDQAGKSSDNRSRGYRGGSAGGRGFFRGGRSRGRGFSRGGGDRGYGGGRFESRSGGYGGSRDYYASRSQGGSYGYRSSGGSYRDSYDSYATHNE |  |  |  |  | 16% and 10.3% and 4.81% and 7.94% and 7.27% and 10.4% and 15.89% and 20.5% and 19.83% | significantly increased the frequency of DLL4^+ neutrophils |
